Measurements from PMC6934184, “Selective DNA-PKcs inhibition extends the therapeutic index of localized radiotherapy and chemotherapy” (The Journal of Clinical Investigation, 2019).

Target: T1, ABL1 E255K (Homo sapiens, UniProt P00519, E255K)
T1 construct: purchased Thermo Fisher Scientific (Life Technologies) SelectScreen
Assay: SelectScreen Z'LYTE
Type: biochemical
Summary of the method: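 Percent values come from Thermo SelectScreen profiling of NU5455, combining activity and binding assays. CSF1R was run in Z'LYTE format at Km app ATP, and CAMK1 in Adapta format with ATP listed at 10.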

T1 sequence (P00519 whole entry E255K): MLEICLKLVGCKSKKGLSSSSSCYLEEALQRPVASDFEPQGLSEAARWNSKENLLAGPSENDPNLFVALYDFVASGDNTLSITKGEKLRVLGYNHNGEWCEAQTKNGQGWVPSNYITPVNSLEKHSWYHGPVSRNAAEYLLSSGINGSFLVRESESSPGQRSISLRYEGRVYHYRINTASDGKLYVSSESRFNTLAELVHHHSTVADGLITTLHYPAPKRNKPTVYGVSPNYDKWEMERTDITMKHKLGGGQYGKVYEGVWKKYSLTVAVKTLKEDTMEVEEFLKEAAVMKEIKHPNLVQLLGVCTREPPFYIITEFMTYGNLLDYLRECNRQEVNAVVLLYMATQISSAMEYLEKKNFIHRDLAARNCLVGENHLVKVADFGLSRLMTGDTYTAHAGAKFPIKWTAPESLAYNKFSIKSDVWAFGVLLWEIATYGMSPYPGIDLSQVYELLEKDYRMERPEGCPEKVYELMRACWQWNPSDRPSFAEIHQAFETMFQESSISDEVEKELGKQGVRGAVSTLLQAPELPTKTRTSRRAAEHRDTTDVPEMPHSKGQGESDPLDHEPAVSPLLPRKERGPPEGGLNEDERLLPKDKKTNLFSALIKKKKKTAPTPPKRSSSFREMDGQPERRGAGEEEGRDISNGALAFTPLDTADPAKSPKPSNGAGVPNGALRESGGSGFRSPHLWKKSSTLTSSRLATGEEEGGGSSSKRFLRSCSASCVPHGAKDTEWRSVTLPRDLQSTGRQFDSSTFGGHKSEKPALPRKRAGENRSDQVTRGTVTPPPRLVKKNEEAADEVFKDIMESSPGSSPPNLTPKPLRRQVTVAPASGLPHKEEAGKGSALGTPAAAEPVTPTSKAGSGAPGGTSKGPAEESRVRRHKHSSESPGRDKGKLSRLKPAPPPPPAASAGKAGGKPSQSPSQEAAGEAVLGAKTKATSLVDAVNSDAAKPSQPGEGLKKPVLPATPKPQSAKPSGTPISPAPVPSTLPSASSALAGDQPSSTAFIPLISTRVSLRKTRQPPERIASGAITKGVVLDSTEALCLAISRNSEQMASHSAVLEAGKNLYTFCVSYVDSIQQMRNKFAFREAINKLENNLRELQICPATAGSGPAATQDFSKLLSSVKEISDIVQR

Molecule CN(C(=O)CN1CCOCC1)c1ccc2sc3c(-c4cccc5c(=O)cc(N6CC7CCC(C6)O7)oc45)cccc3c2c1 [NU5455] has an inhibition at 1 µM of -6.6%.
